Patent publication US12201610B2, “Compositions comprising aticaprant” (Janssen Pharmaceuticals, Inc., priority 2022, dated 2025)
Where two headings read alike, the source gives them in different places. Marks after values point to notes of the source that are not given here.

Assay: Phase 1 PK Part 2: relative bioavailability, dose proportionality, food effect of milled API tablet
Assay type: in vivo, human
Description: This is a Phase 1, open-label, single dose, multicenter, 4-part study in healthy adult participants.
Potential participants will be screened from Day −28 to Day −2 to determine participants' eligibility for study participation. For Part 1, qualified participants will be admitted on Day −1 of each treatment period and will remain in-house for the total duration of the treatment (Day −1 until Day 5, with single-dose treatment on Day 1 and 96 hours of PK), whereas for Part 2, PK sampling will be done up to 120 hours (Day 6). Each dosed participant will have a safety follow-up on Day 10 to Day 14 after last dose of the study intervention.
The Part 2 of the study involves determination of relative bioavailability for tablet (Formulation Concept 2, i.e., milled (microfine) aticaprant formulation; see Table 10) and capsule formulations (see Example 6, study design, for description of capsule formulation) and dose proportionality and food effect for tablet formulation (Formulation Concept 2) in healthy adult participants (FIG. 26). Part 2 will consist of Subpart 2A and Subpart 2B consisting of a total of 4 periods. […] Participants will be assigned to 1 of 6 treatment sequences (Table 55) and will be administered the 3 treatments in a 3-way crossover. The same 24 participants who complete Subpart 2A will be enrolled in Subpart 2B. Subpart 2B consists of a fourth period to evaluate the food effect of a single dose of 10 mg aticaprant administered as 1×10 mg oral tablet (Formulation Concept 2) under fed conditions (Treatment H; Tables 54 and 56). A preliminary PK analysis will be conducted at the end of the food effect part (Subpart 2B) for all the periods from Part 2 and will include the food effect data.
For each individual participant, there will be a washout period of at least 7 days for Part 1 and at least 8 days for Part 2 between subsequent intakes of the study intervention. Day 1 of a treatment period (day of study intervention intake) is the first day of the washout period (also in between the study parts, if applicable).
Participants will be fasting in Part 1A and Part 2A. Participants will have been fed in Parts 1B and 2B. For a fasted condition, participants will fast (nothing to cat or drink except noncarbonated water) overnight for at least 10 hours before and until 4 hours after study intervention administration during each fasted treatment period. Approximately, 4 hours post-dose and after the 4-hour PK sampling, a standard lunch will be served at the study-site. Intake of water is allowed until 2 hours before the intake of the study intervention. Thereafter, water intake is only allowed for study intervention intake and for breakfast, if applicable. Drinking of water is allowed ad libitum from approximately 2 hours after dosing. For a fed condition, participants will consume, after an overnight fast (at least 10 hours), a standardized high-fat breakfast within a 20-minute period. […] Study intervention will be administered approximately 30 minutes after the start of the breakfast.
In Parts 1 and 2, plasma concentrations will be determined for aticaprant. Blood samples for determination of plasma concentrations of aticaprant will be collected predose and at the postdose time points starting on Day 1 as indicated in the Tables 57-58.
The following plasma PK parameters of aticaprant will be determined. A noncompartmental model with extravascular input will be used for the pharmacokinetic analysis.
Based on the individual concentration-time data, using the actual sampling times, the following PK parameters will be derived for aticaprant: […]

[1] = Dose proportionality: Treatment G (5 mg milled API tablet normalized to 10 mg, Test)/Treatment F (10 mg, Reference), fasting
[2] = Food effect: Treatment H (high-fat diet, Test)/Treatment F (fasted, Reference), 10 mg milled API tablet
[3] = Relative BA: Treatment F (10 mg milled API tablet, Test)/Treatment E (2 × 5 mg capsule, Reference), fasting
[4] = Treatment E: 2 × 5 mg oral capsule, fasting, mean
[5] = Treatment F: 1 × 10 mg Formulation Concept 2 (milled API tablet), fasting, mean (SD)
[6] = Treatment G (1 × 5 mg Formulation Concept 2, fasting), dose normalized to 10 mg, mean (SD)
[7] = Treatment G: 1 × 5 mg Formulation Concept 2 (milled API tablet), fasting, mean
[8] = Treatment H: 1 × 10 mg Formulation Concept 2 (milled API tablet), after high-fat breakfast, mean

For `Cc1cc(C)cc(C2CCCN2Cc2ccc(Oc3ccc(C(N)=O)cc3F)cc2)c1` (stereo not shown) [aticaprant, 3-fluoro-4-4-2-(3,5-dimethylphenyl)pyrrolidin-1-yl-methylphenoxybenzamide], the Geometric Mean Cmax (Dose proportionality, completers, Treatment G (Test): 1 × 5 mg Formulation Concept 2, fasting, Dose Normalized to 10 mg) was 32.5 ng/mL, the “Ratio of Geometric Means, AUClast” value [1] was 104.15% and the “Ratio of Geometric Means, AUC∞” value [1] was 106.40%. The “Ratio of Geometric Means, Cmax” value [1] was 105.13%, the “Ratio of Geometric Means, AUClast” value [2] was 134.90% and the “Ratio of Geometric Means, AUC∞” value [2] was 135.55%. For the same molecule, the “Ratio of Geometric Means, Cmax” value [2] was 107.30%, the “Ratio of Geometric Means, AUClast” value [3] was 94.31% and the “Ratio of Geometric Means, AUC∞” value [3] was 93.66%. For the same molecule, the “Ratio of Geometric Means, Cmax” value [3] was 102.30%, the “% AUC∞, ex” value [4] was 5.02% and the CL/F [4] was 34.8 L/h. For the same molecule, the λz [4] was 0.024 h⁻¹, the “% AUC∞, ex” value [5] was 5.50 (3.17) % and the CL/F [5] was 35.8 (12.1) L/h. The Cmax [5] was 32.4 (7.39) ng/mL, the λz [5] was 0.024 (0.007) 1/h and the “AUClast, G Dose Normalized” value [6] was 314 (160) h * ng/mL. The “AUC∞, G Dose Normalized” value [6] was 308 (74.1)^a h * ng/mL, the “Cmax, G Dose Normalized” value [6] was 34.7 (11.6) ng/mL and the “% AUC∞, ex” value [7] was 6.93%. For the same molecule, the CL/F [7] was 34.7 L/h, the λz [7] was 0.030 h⁻¹ and the “% AUC∞, ex” value [8] was 4.92%. For the same molecule, the CL/F [8] was 27.0 L/h, the Cmax [8] was 34.0 ng/mL and the λz [8] was 0.025 h⁻¹. For the same molecule, the AUC(0-t) (human, plasma, oral, 5 mg, Dose proportionality, completers, Treatment G (Test): 1 × 5 mg Formulation Concept 2, fasting, Dose Normalized to 10 mg, read-out: Geometric Mean AUClast) was 285 ng·h/mL, the AUC(0-inf) (human, plasma, oral, 5 mg, Dose proportionality, completers, Treatment G (Test): 1 × 5 mg Formulation Concept 2, fasting, Dose Normalized to 10 mg, read-out: Geometric Mean AUC∞) was 296 ng·h/mL and the half-life (human, plasma, oral, 5 mg, Treatment G: 1 × 5 mg Formulation Concept 2 (milled API tablet), fasting, mean) was 26.6 h. For the same molecule, the AUC(0-t) (human, plasma, oral, 5 mg, Treatment G: 1 × 5 mg Formulation Concept 2 (milled API tablet), fasting, mean, read-out: AUClast) was 157 ng·h/mL, the AUC(0-inf) (human, plasma, oral, 5 mg, Treatment G: 1 × 5 mg Formulation Concept 2 (milled API tablet), fasting, mean, read-out: AUC∞) was 154 ng·h/mL and the Cmax (human, plasma, oral, 5 mg, Treatment G: 1 × 5 mg Formulation Concept 2 (milled API tablet), fasting, mean, read-out: Cmax) was 17.4 ng/mL. It also gave a Tmax (human, plasma, oral, 5 mg, Treatment G: 1 × 5 mg Formulation Concept 2 (milled API tablet), fasting, median) of 1 h, an AUC(0-t) (human, plasma, oral, 10 mg, Dose proportionality, completers, Treatment F (Reference): 1 × 10 mg Formulation Concept 2, fasting, read-out: Geometric Mean AUClast) of 274 ng·h/mL and an AUC(0-inf) (human, plasma, oral, 10 mg, Dose proportionality, completers, Treatment F (Reference): 1 × 10 mg Formulation Concept 2, fasting, read-out: Geometric Mean AUC∞) of 279 ng·h/mL. The Cmax (human, plasma, oral, 10 mg, Dose proportionality, completers, Treatment F (Reference): 1 × 10 mg Formulation Concept 2, fasting, read-out: Geometric Mean Cmax) was 30.9 ng/mL, the AUC(0-t) (human, plasma, oral, 10 mg, Food effect, completers, Treatment F (Reference): 1 × 10 mg milled API tablet, fasted, read-out: Geometric Mean AUClast) was 279 ng·h/mL and the AUC(0-inf) (human, plasma, oral, 10 mg, Food effect, completers, Treatment F (Reference): 1 × 10 mg milled API tablet, fasted, read-out: Geometric Mean AUC∞) was 280 ng·h/mL. For the same molecule, the Cmax (human, plasma, oral, 10 mg, Food effect, completers, Treatment F (Reference): 1 × 10 mg milled API tablet, fasted, read-out: Geometric Mean Cmax) was 31.3 ng/mL, the AUC(0-t) (human, plasma, oral, 10 mg, Food effect, completers, Treatment H (Test): 1 × 10 mg milled API tablet, high-fat diet, read-out: Geometric Mean AUClast) was 377 ng·h/mL and the AUC(0-inf) (human, plasma, oral, 10 mg, Food effect, completers, Treatment H (Test): 1 × 10 mg milled API tablet, high-fat diet, read-out: Geometric Mean AUC∞) was 379 ng·h/mL. It also gave an AUC(0-t) (human, plasma, oral, 10 mg, Relative BA, completers, Treatment F (Test): 1 × 10 mg Formulation Concept 2 (milled API tablet), fasting, read-out: Geometric Mean AUClast) of 274 ng·h/mL, an AUC(0-inf) (human, plasma, oral, 10 mg, Relative BA, completers, Treatment F (Test): 1 × 10 mg Formulation Concept 2 (milled API tablet), fasting, read-out: Geometric Mean AUC∞) of 279 ng·h/mL and a Cmax (human, plasma, oral, 10 mg, Relative BA, completers, Treatment F (Test): 1 × 10 mg Formulation Concept 2 (milled API tablet), fasting, read-out: Geometric Mean Cmax) of 30.9 ng/mL. For the same molecule, the half-life (human, plasma, oral, 10 mg, Treatment F: 1 × 10 mg Formulation Concept 2 (milled API tablet), fasting, mean (SD)) was 31 h, the AUC(0-t) (human, plasma, oral, 10 mg, Treatment F: 1 × 10 mg Formulation Concept 2 (milled API tablet), fasting, mean (SD), read-out: AUClast) was 297 ng·h/mL and the AUC(0-inf) (human, plasma, oral, 10 mg, Treatment F: 1 × 10 mg Formulation Concept 2 (milled API tablet), fasting, mean (SD), read-out: AUC∞) was 318 ng·h/mL. The Tmax (human, plasma, oral, 10 mg, Treatment F: 1 × 10 mg Formulation Concept 2 (milled API tablet), fasting, median (range)) was 1.5 h, the half-life (human, plasma, oral, 10 mg, Treatment H: 1 × 10 mg Formulation Concept 2 (milled API tablet), after high-fat breakfast, mean) was 30.8 h and the AUC(0-t) (human, plasma, oral, 10 mg, Treatment H: 1 × 10 mg Formulation Concept 2 (milled API tablet), after high-fat breakfast, mean, read-out: AUClast) was 388 ng·h/mL. For the same molecule, the AUC(0-inf) (human, plasma, oral, 10 mg, Treatment H: 1 × 10 mg Formulation Concept 2 (milled API tablet), after high-fat breakfast, mean, read-out: AUC∞) was 388 ng·h/mL, the Tmax (human, plasma, oral, 10 mg, Treatment H: 1 × 10 mg Formulation Concept 2 (milled API tablet), after high-fat breakfast, median) was 2 h and the AUC(0-t) (human, plasma, po, 10 mg, Relative BA, completers, Treatment E (Reference): 2 × 5 mg oral capsule, fasting, read-out: Geometric Mean AUClast) was 291 ng·h/mL. For the same molecule, the AUC(0-inf) (human, plasma, po, 10 mg, Relative BA, completers, Treatment E (Reference): 2 × 5 mg oral capsule, fasting, read-out: Geometric Mean AUC∞) was 297 ng·h/mL, the Cmax (human, plasma, po, 10 mg, Relative BA, completers, Treatment E (Reference): 2 × 5 mg oral capsule, fasting, read-out: Geometric Mean Cmax) was 30.2 ng/mL and the half-life (human, plasma, po, 10 mg, Treatment E: 2 × 5 mg oral capsule, fasting, mean) was 30.5 h. The AUC(0-t) (human, plasma, po, 10 mg, Treatment E: 2 × 5 mg oral capsule, fasting, mean, read-out: AUClast) was 308 ng·h/mL, the AUC(0-inf) (human, plasma, po, 10 mg, Treatment E: 2 × 5 mg oral capsule, fasting, mean, read-out: AUC∞) was 307 ng·h/mL and the Cmax (human, plasma, po, 10 mg, Treatment E: 2 × 5 mg oral capsule, fasting, mean, read-out: Cmax) was 31.7 ng/mL. It also gave a Tmax (human, plasma, po, 10 mg, Treatment E: 2 × 5 mg oral capsule, fasting, median) of 2 h.
